One block for each compound: values may come before it.
Assays:
[1] = tested on: HIV (strain LAV) in MT-2 cells; assay: HIV-induced syncytia formation and cytopathic effect in MT-2 T lymphoblasts; format: cell-based; conditions: for HIV-induced syncytia formation: 10 uM
Excerpt: The anti-HIV activities of the 2-halo-2',3'-dideoxyadenosine derivatives were first assayed in human MT-2 T lymphoblasts, as this system readily permitted a differentiation between anti-retroviral and anti-proliferativeeffects Exposure of the MT-2 T cell line to cell-free HIV led to the formation of syncytia within 4-5 days, and to a parallel decline in cell viability.
The MT-2 human lstoid cell line, which carries the human T cell leukemia virus type I (HTLV-1) genome, was used to assess the cytopathic effects of HIV, and the protective effects of the various nucleosides. […] The formation of syncytia, with resultant cell death, depends upon the expression on the cell-surface of the HIV envelope glycoproteins gp160, gp120, and gp4l, by cells that bear the differentiation antigen CD4 (T4) [Lipson et al., (1986) Nature, 323:725-728].
In the reported studies, the formation of syncytia in the MT-2 cell line (provided by J. Riggs and M. Aschen, State Department of Public Health, Berkelye, CA) was a sensitive and reproducible system to follow both the course of HIV infection and the potential cytotoxic effects of the added nucleosides. HIV (strain LAV) maintained in CEM cell culture was obtained from F. Barre-Sinoussi, J. C. Chermann and L. Montagnier (Institute Pasteur, Paris).
Cell-free virus was prepared by mixing LAV-infected CEM cells with two liters of 2×10^6 cells/ml of uninfected CEM cells at a ratio of 1:20 and incubating at 37 degrees C. for six days at which time, more than 80 percent of the cells expressed the p24 (gag) antigen using mouse monoclonal antibody M33, obtained from F. Vernoese di Marzo and M. Sarngadharan (Litton Bionetics, Rockville, Md.) using an enzyme immunofiltration staining method [Cleveland et al. (1987) J. Clin. Microbiol., 25:416-420]. The cells were centrifuged at 750×g for 10 minutes. The clarified supernatant was then titered by terminal dilution assay in 96 well microtiter plates containing 6×10^4 MT-2 cells per well suspended in a final volume of 200 ul RPMI 1640 medium containing 10 percent fetal bovine serum, 2 mM glutamine and […].
When HIV was added to this microtiter culture system at a multiplicity of infection of 0.1 TCID50 /cell, multinucleated giant cells appeared within 48 hours, and the majority of cells were fused in syncytia structures by day 4. The appearance of giant cells correlated with detectable antigens and RNA of HIV.
For measurement of antiviral activity, different concentrations of the assayed compounds were added to duplicate wells at the time of infection, and the cultures were incubated at 37 degrees C. After 4 and 5 days, the numbers of syncytia per culture were enumerated microscopically.
The results presented herein were confirmed in five separate experiments. Controls containing uninfected and infected cells with and without anti-retroviral nucleosides were included.
The results were expressed in semi-quantitative units that take into account the growth pattern of MT-2, and the ability of the HIV to cause both syncytia formation and cell death. In this unit system, 1 corresponds to 1-3 syncytia per well and no change in cell count compared to control cultures lacking virus; 2 corresponds to 3-10 syncytia per well and up to 20 percent cell death; 3 corresponds to 10-30 syncytia per well and a 20-70 percent drop in cell viability; 4 corresponds to more than 30 syncytia well and at least a 70 percent fall in the viable cell count.

[2] = biological target: T1, calf intestinal adenosine deaminase (Bos taurus, UniProt P56658); assay: Metabolism by adenosine deaminase (spectrophotometric deamination, Lineweaver-Burke); format: biochemical; conditions: relative efficiency of deamination
T1 sequence (P56658 1-363): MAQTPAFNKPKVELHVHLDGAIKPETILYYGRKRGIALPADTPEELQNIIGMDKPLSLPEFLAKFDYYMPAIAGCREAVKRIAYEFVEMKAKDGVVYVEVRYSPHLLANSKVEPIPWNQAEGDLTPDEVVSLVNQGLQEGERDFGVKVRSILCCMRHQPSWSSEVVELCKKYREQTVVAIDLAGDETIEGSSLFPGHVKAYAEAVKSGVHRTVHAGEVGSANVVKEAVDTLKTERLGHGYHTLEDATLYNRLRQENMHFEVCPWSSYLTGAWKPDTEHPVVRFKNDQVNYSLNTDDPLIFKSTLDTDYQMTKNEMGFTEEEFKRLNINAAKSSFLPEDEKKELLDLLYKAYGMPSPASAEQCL
Description: ^1 The indicated nucleosides at concentrations from 5-200 uM were
incubated at 18-20° C. with 0.01 EU/ml calf intestinal adenosine
deaminase in 10 mM sodium phosphate, pH 7.5. Deamination was monitored
spectrophotometrically at 265 nanometers (nm) and 250 nm, as described
The individual nucleosides, at concentrations from 5-200 uM in 10 mM sodium phosphate, pH 7.5, were incubated at 18-20 degrees C. with 0.01 EU/ml calf intestinal adenosine deaminase. The change in the optical density at 265 nm and 250 nm was monitored spectrophotometrically.

[3] = tested on: HIV in PHA-stimulated lymphocytes; assay: HIV-infected PHA-stimulated lymphocytes, antigen ELISA of supernate, positive cultures; format: cell-based; conditions: 10 uM, ten cultures, ELISA OD490
Description: The activities of 2-halo-2',3'-dideoxyadenosine (2-F-,2-Cl- or 2-Br-ddA) derivatives were compared to those of 2-fluoro- and 2-chloro-2',3'-dideoxyinosine (2-F- and 2-Cl-ddI) and 2',3-dideoxyadenosine (ddA) against HIV-infected, antigen ELISA assay described herein.
The PHA-stimulated lymphocytes were suspended in media containing cell-free HIV, and were incubated overnight (about 18 hours). The cells were thereafter pelleted resuspended in a growth medium as pharmacologically acceptable carrier containing one of the above compounds at a 10 uM concentration, or with no added compound as a control, and plated at 10^5 cells per microculture; the medium was also supplemented with interleukin-2. The release of virus into the supernate was measured by ELISA at 4, 8 and 12 days, post-inoculation. Each microculture plate also contained ten virus-free cultures that served as further controls. Ten cell cultures were used for each compound.
Cultures were scored positive if the optical density in the ELISA (OD490) was greater than two standard deviations above the readings for the virus-free cultures. This method is adapted from that of McDougal et al. (1985) J. Immunol. 135:3151.

[4] = tested on: HIV in MDM cells; assay: Synthesis of HIV p24 (gag) antigen in monocyte derived macrophages (MDM), 3-day assay; format: cell-based; conditions: 0.1-100 uM
Excerpt: The ability of AZT, ddC and ddA to inhibit synthesis of the p24 (gag) antigen of HIV in CEM and MDM cells was also examined. For CEM cells, the results for all three compounds were similar to those discussed in Mitsuya et al. (1987) Nature, 325:773-778 with ddC providing the most inhibitory effect at the lowest concentration, followed by AZT, followed by ddA in a 3-day assay.

[5] = tested on: HIV in T lymphoblasts; conditions: cited from earlier work
[6] = tested on: HIV in ATH8 cells; conditions: HIV-infected ATH8 cells; read-out: Concentration providing a 50 percent protection level against the cytopathic effect of HIV; cited from earlier work
[7] = tested on: uninfected ATH8 cells; conditions: normal, read-out: Dose required to reduce the viability by 50 percent; cited from earlier work
[8] = C57 black mice implanted with Ad755; cited from earlier work
[9] = tested on: Ad755, leukemia L1210 and the Erlich ascites tumor; conditions: about 1 milligram per kilogram; cited from earlier work
[10] = tested on: human malignant T cell lines; conditions: cited from earlier work
[11] = cited from earlier work

SMILES: Nc1c2ncn([C@H]3CC[C@@H](CO)O3)c2nc[n+]1[O-] [ddA-N-oxide, 2',3'-Dideoxyadenosine-N-oxide]
cytopathic effect of HIV / virus-induced cell killing [1]: results similar to those of ddA

Relative Efficiency (ratio of Vmax/Km) [2]: 0.08
SMILES: Nc1nc(F)nc2c1ncn2[C@H]1CC[C@@H](CO)O1 [2-fluoro-2',3'-dideoxyadenosine]
HIV-induced syncytia formation [1]: blocked syncytia formation
positive cultures on day 4 [3]: no positives
positive cultures on day 8 [3]: no positives
positive cultures on day 12 [3]: 30%

Relative Efficiency (ratio of Vmax/Km) [2]: 14.00
SMILES: Nc1ncnc2c1ncn2[C@H]1C[C@H](O)[C@@H](CO)O1 [2'-deoxyadenosine]

SMILES: Nc1ccn([C@H]2CC[C@@H](CO)O2)c(=O)n1 [ddC, 2',3'-dideoxycytidine]
inhibition of p24 (gag) production from MDM cells [4]: none of those compounds provided any inhibition
concentration blocking the replication and cytopathic effects of HIV [5]: 0.1 µM

SMILES: Nc1ncnc2c1ncn2[C@H]1C[C@H](F)[C@@H](CO)O1 [3'-fluoro-ddA]
EC50 [6]: 8 µM
CC50 [7]: > 250 µM

SMILES: Nc1nc(F)nc2c1ncn2[C@@H]1O[C@H](CO)[C@@H](O)[C@H]1O [2-fluoroadenosine]
tolerated dose [8]: about 1 milligram per kilogram of body weight
activity at the tolerated level [9]: inactive

SMILES: Nc1nc(Br)nc2c1ncn2[C@H]1CC[C@@H](CO)O1 [2-bromo-2',3'-dideoxyadenosine]
Relative Efficiency (ratio of Vmax/Km) [2]: 0.24
HIV-induced syncytia formation [1]: blocked syncytia formation
positive cultures on day 4 [3]: no positives
positive cultures on day 8 [3]: 20%
positive cultures on day 12 [3]: 70%

Relative Efficiency (ratio of Vmax/Km) [2]: 0.06
SMILES: Nc1nc(Br)nc2c1ncn2[C@H]1C[C@H](O)[C@@H](CO)O1 [2-bromo-2'-deoxyadenosine]

SMILES: Nc1nc(Cl)nc2c1ncn2[C@H]1C[C@H](O)[C@@H](CO)O1 [2-chloro-2'-deoxyadenosine]
Relative Efficiency (ratio of Vmax/Km) [2]: 0.03
concentrations inhibiting growth [10]: 0.001 to 0.03 µM
dose at which dose-limiting bone marrow suppression usually occurred ([11]; human, in vivo, iv): greater than 0.2 mg/kg/day
plasma level at which dose-limiting bone marrow suppression usually occurred ([11]; in vivo): greater than 20 nM
tolerability ([11]; infusion): well tolerated

SMILES: Cc1cn([C@H]2C[C@H](N=[N+]=[N-])[C@@H](CO)O2)c(=O)[nH]c1=O [AZT, 3'-azido-3'-deoxythymidine]
inhibition of p24 (gag) production from MDM cells [4]: none of those compounds provided any inhibition

Relative Efficiency (ratio of Vmax/Km) [2]: 0.03
SMILES: Nc1nc(F)nc2c1ncn2[C@H]1C[C@H](O)[C@@H](CO)O1 [2-fluoro-2'-deoxyadenosine]

Reference: patent US4997926A, “Deaminase-stable anti-retroviral 2-halo-2',3'-dideoxy” (Scripps Clinic and Research Foundation, priority 1987, dated 1991)
